Four molecules from publication PMC10427391, “Identification of Cytochrome P450 2E1 as a Novel Target in Glioma and Development of Its Inhibitor as an Anti‐Tumor Agent” (Advanced Science, 2023) can be followed below.

Data set [1] relates to primary microglia. Nature of the data set: Primary microglia induced by IL-4 and IL-13: polarization markers and signaling (western blot, immunofluorescence). On the technique in general: A western blot detects proteins with antibodies after separation by electrophoresis.
Experimental: Tissues and cells were harvested and lysed with RIPA buffer. The protein concentration was determined using a BCA kit. Samples were separated on 10% SDS‐PAGE gels and blotted onto nitrocellulose membranes (Millipore).The membranes were incubated with primary antibodies at 4 °C overnight, washed three times with TBST, and then incubated with HRP‐conjugated anti‐mouse IgG or anti‐rabbit IgG diluted in TBST containing 1% non‐fat milk at room temperature for 1 h. After final washing with TBST, the membranes were developed by using ECL.
Data set [2] relates to glioma induced by U251‐LUC cells. Nature of the data set: Intracranial orthotopic glioma model induced by U251-LUC cells.
Data set [3] in a line: Central inhibitory effect. The settings on record: clomethiazole: at a dose that inhibited CYP2E1.
The target in data set [4] is CYP2E1 (Homo sapiens, UniProt P05181). As to the kind of experiment: In vitro inhibition of CYP2E1 (chlorzoxazone as substrate). The data set is classed as biochemical. Further details: A 100 µL microsomal incubation system; from tissue. As to conditions: chlorzoxazone 62.5 µM; read-out: IC50 of inhibition on CYP2E1. On the procedure: Chlorzoxazone with a concentration of 62.5 µM and inhibitors with different gradient concentrations were selected to plot the inhibition of chlorzoxazone and to calculate the IC50 of the inhibitor. A Lineweaver–Burk curve was used to determine the mechanism and calculate the K i of inhibitors of CYP2E1.
A 100 µL microsomal incubation system^[ [44] ^] contained probe drugs for each CYP with different series of concentrations, Q11, phosphate buffer, EDTA, magnesium chloride, and substrates (phenacetin for CYP1A2, coumarin for CYP2A6, bupropion for CYP2B6, paclitaxel for CYP2C8, tolbutamide for CYP2C9, omeprazole for CYP2C19, dextromethorphan for CYP2D6, chlorzoxazone for CYP2E1, midazolam for CYP3A4/5). HPLC‐UV and HPLC‐FLD were used to measure the number of metabolites.

Where [5] appears, read: endpoint day 36 after transplantation.

Sequence of CYP2E1 (P05181 whole entry): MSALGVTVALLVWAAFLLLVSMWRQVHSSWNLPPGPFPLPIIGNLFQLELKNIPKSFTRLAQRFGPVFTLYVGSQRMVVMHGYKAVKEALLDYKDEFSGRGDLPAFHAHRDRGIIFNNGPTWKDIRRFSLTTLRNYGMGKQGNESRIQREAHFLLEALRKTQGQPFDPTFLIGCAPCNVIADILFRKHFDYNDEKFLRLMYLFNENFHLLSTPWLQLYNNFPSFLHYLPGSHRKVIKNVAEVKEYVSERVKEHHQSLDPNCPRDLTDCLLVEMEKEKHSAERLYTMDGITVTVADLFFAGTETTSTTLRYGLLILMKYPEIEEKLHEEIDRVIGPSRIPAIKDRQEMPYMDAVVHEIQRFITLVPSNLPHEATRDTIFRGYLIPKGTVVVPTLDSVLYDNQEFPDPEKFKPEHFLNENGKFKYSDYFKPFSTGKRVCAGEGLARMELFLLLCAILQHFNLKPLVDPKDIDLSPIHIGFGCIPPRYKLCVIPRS

As for `O=C(Nc1ccccc1)c1cc([N+](=O)[O-])ccc1Cl` [GW9662, reference compound], the “PPAR-γ expression in presence of rosiglitazone” value in data set [1] (antagonist of PPARγ, blocked the ability of rosiglitazone) is on record as “downregulated”.
Turning to `CN(CCOc1ccc(CC2SC(=O)NC2=O)cc1)c1ccccn1` (centres unmarked) [Rosiglitazone, reference compound], the “effect on the action of Q11 (PPAR-γ dependence)” value in data set [1] (agonist of PPAR-γ added to Q11) was “completely blocked the effect of Q11”.
For `Cn1nnc2c(C(N)=O)ncn2c1=O` [TMZ, temozolomide, reference compound], in data set [2] (day 14 after transplantation, Q11 at 10 and 30 mg kg^−1), the “bioluminescence in tumor sites” value is recorded as “lesser bioluminescence”. In data set [2] (setting [5]), the brain weight entry was “markedly suppressed”, the tumor diameter result is on record as “markedly suppressed” and the tumor volume entry is “markedly suppressed”.
One may read the IC50 as the concentration that inhibits the measured activity by half. On to `Cc1ncsc1CCCl` [clomethiazole, reference compound], for which, in data set [3], the central inhibitory effect entry is on record as “significant central inhibitory effect”. For the same molecule, the IC50 in data set [4] worked out at 39.3 µM.
